Assay results: patent publication US6350745B1, “Thrombin inhibitors” (Merck & Co., Inc., priority 1999, dated 2002)

Molecular target: human α-thrombin (Homo sapiens, UniProt P00734)
Test: In vitro assay for determining proteinase inhibition (thrombin)
Format: biochemical
Details: 25° C., 0.05 M TRIS buffer pH 7.4, 0.15 M NaCl, 0.1% PEG
Protocol: In vitro Assay for Determining Proteinase Inhibition
Assays of human α-thrombin and human trypsin were performed by the methods substantially as described in Thrombosis Research, Issue No. 70, page 173 (1993) by S. D. Lewis et al.
The assays were carried out at 25° C. in 0.05 M TRIS buffer pH 7.4, 0.15 M NaCl, 0.1% PEG. Trypsin assays also contained 1 mM CaCl2. In assays wherein rates of hydrolysis of a p-nitroanilide (pna) substrate were determined, a Thermomax 96-well plate reader was used was used to measure (at 405 nm) the time dependent appearance of p-nitroaniline. sar-PR-pna was used to assay human […]thrombin (Km=125 μM) and bovine trypsin (Km=125 μM). p-Nitroanilide substrate concentration was determined from measurements of absorbance at 342 nm using an extinction coefficient of 8270 cm^−1 M^−1.
In certain studies with potent inhibitors (Ki<10 nM) where the degree of inhibition of thrombin was high, a more sensitive activity assay was employed. […]
Activity assays were performed by diluting a stock solution of substrate at least tenfold to a final concentration ≦0.1 Km into a solution containing enzyme or enzyme equilibrated with inhibitor. Times required to achieve equilibration between enzyme and inhibitor were determined in control experiments. Initial velocities of product formation in the absence (Vo) or presence of inhibitor (Vi) were measured. […]

## Cc1cc2c(c(=O)n1CC(=O)NCc1ncccc1F)NC(=O)OC2(CC1CC1)CC1CC1 [compound 3-1]
  Ki: < 100 nM
